What was measured:
Experiment in all cases: relative viability (nuclei count vs DMSO), 5 days (fraction); higher = more cells survive
Carboplatin + Crizotinib = compound: C1CC(C1)(C(=O)O)C(=O)O.[NH2-].[NH2-].[Pt+2] [Carboplatin] + C[C@@H](Oc1cc(-c2cnn(C3CCNCC3)c2)cnc1N)c1c(Cl)ccc(F)c1Cl [Crizotinib] (partner 1 µM)
Method in brief: (§1)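 Medians of duplicate plates are given as relative viability. That measure is the nuclei count in treated wells divided by the count in vehicle wells. Counts were taken on 4× images of lung cancer cell lines in 1536-well plates, 5 days after pin-tool dosing the day after seeding with one drug alone or a fixed anchor-drug dose plus five library-drug doses (not always all listed) in √10 steps.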

MLN4924 + Linsitinib = compound: NS(=O)(=O)OC[C@@H]1C[C@@H](n2ccc3c(N[C@H]4CCc5ccccc54)ncnc32)C[C@@H]1O [MLN4924] + C[C@]1(O)C[C@@H](c2nc(-c3ccc4ccc(-c5ccccc5)nc4c3)c3c(N)nccn32)C1 [Linsitinib] (partner 1 µM)
Method in brief: as §1

GSK126 + Lapatinib = compound: CC[C@H](C)N1C=C(C2=C(C=C(C=C21)C3=CN=C(C=C3)N4CCNCC4)C(=O)NCC5=C(C=C(NC5=O)C)C)C [GSK126] + CS(=O)(=O)CCNCc1ccc(-c2ccc3ncnc(Nc4ccc(OCc5cccc(F)c5)c(Cl)c4)c3c2)o1 [Lapatinib] (partner 2 µM)
Method in brief: as §1

MLN4924 + Tozasertib = compound: NS(=O)(=O)OC[C@@H]1C[C@@H](n2ccc3c(N[C@H]4CCc5ccccc54)ncnc32)C[C@@H]1O [MLN4924] + Cc1cc(Nc2cc(N3CCN(C)CC3)nc(Sc3ccc(NC(=O)C4CC4)cc3)n2)n[nH]1 [Tozasertib] (partner 0.1 µM)
Method in brief: as §1

Cell Line	relative viability (Carboplatin + Crizotinib; first compound 0.08 µM)	relative viability (Carboplatin + Crizotinib; first compound 0.253 µM)	relative viability (Carboplatin + Crizotinib; first compound 0.8 µM)	relative viability (Carboplatin + Crizotinib; first compound 2.53 µM)	relative viability (Carboplatin + Crizotinib; first compound 8 µM)	relative viability (MLN4924 + Linsitinib; first compound 0.04 µM)	relative viability (MLN4924 + Linsitinib; first compound 0.1265 µM)	relative viability (MLN4924 + Linsitinib; first compound 0.4 µM)	relative viability (MLN4924 + Linsitinib; first compound 1.265 µM)	relative viability (MLN4924 + Linsitinib; first compound 4 µM)	relative viability (GSK126 + Lapatinib; first compound 0.08 µM)	relative viability (GSK126 + Lapatinib; first compound 0.253 µM)	relative viability (GSK126 + Lapatinib; first compound 0.8 µM)	relative viability (GSK126 + Lapatinib; first compound 2.53 µM)	relative viability (GSK126 + Lapatinib; first compound 8 µM)	relative viability (MLN4924 + Tozasertib; first compound 0.04 µM)	relative viability (MLN4924 + Tozasertib; first compound 0.1265 µM)	relative viability (MLN4924 + Tozasertib; first compound 0.4 µM)	relative viability (MLN4924 + Tozasertib; first compound 1.265 µM)	relative viability (MLN4924 + Tozasertib; first compound 4 µM)
NCI-H460	0.799	0.809	0.76	0.614	0.16	0.838	0.733	0.113	0.0176	0.0132	0.971	1.03	0.879	1.14	1.1	0.464	0.484	0.421	0.228	0.0266
NCI-H520	0.943	0.914	0.709	0.576	0.601	0.587	0.413	0.312	0.239	0.185	1.09	0.713	0.722	0.898	0.922	0.461	0.513	0.425	0.204	0.25
NCI-H596	0.895	0.983	0.834	0.783	0.735	1.2	1.3	0.744	0.853	0.304	1.11	0.932	0.951	1.11	1.08	0.819	0.987	–	0.514	0.528
NCI-H647	1.11	1.04	1.01	1.11	0.632	0.709	0.499	0.137	0.0815	0.0619	1.22	1.01	0.927	1.11	0.865	0.281	0.181	0.149	0.0334	0.0369
NCI-H650	0.789	0.697	0.569	0.506	0.567	0.611	0.604	0.266	0.186	0.174	0.833	0.838	0.97	0.978	0.955	0.584	0.356	0.307	0.161	0.187
NCI-H661	1	1.05	0.98	–	0.843	0.636	0.757	0.576	0.258	0.247	0.417	0.574	0.441	0.572	0.361	0.343	0.329	0.359	0.338	0.375
NCI-H727	0.988	0.953	0.704	0.614	0.317	0.402	0.169	0.234	0.21	0.24	0.746	0.81	0.984	0.884	1.06	0.677	0.462	0.432	0.335	0.328
NCI-H838	0.838	0.918	0.784	0.861	0.797	0.675	0.283	0.208	0.161	0.149	1.12	0.938	0.882	0.865	0.906	0.275	0.288	0.204	0.123	0.118
